Measured values from ChEMBL document CHEMBL1126256, “Structural modifications of camptothecin and effects on topoisomerase I inhibition” (J Med Chem, 1992).
One block for each compound: values may come before it. Calls of active or inactive are those of the source. The rule behind the calls is not given here.

Legend:
[1] = target: T1, DNA topoisomerase 1 (Homo sapiens) (UniProt P11387); assay: Relative activity against DNA topoisomerase I was measured at concentration of 833 uM to that of camptothecin; Inactive
T1 sequence (whole entry): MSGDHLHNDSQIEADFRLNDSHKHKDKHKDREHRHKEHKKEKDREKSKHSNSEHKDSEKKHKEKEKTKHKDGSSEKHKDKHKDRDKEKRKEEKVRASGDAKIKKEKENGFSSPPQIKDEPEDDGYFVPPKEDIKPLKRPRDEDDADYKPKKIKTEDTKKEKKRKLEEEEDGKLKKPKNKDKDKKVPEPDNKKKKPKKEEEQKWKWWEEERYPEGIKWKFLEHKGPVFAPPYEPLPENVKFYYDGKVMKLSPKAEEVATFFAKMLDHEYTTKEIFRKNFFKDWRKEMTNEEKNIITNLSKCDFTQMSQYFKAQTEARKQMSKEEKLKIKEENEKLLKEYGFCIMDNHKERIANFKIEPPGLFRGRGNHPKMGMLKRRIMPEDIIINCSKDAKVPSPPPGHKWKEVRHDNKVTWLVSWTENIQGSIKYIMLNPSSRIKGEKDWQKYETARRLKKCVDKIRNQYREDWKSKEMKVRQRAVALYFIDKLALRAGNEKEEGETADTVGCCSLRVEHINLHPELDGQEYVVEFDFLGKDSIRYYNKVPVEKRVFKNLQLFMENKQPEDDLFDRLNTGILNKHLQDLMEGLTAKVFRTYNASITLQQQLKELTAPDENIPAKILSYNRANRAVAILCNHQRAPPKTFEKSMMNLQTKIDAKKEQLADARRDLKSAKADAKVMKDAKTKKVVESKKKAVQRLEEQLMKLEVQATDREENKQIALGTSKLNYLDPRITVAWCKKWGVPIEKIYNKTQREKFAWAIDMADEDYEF

[2] = target: T1, DNA topoisomerase 1 (Homo sapiens); assay: Relative activity against Topoisomerase I was measured at concentration of 25 uM to that of camptothecin; Inactive
[3] = target: T1, DNA topoisomerase 1 (Homo sapiens); assay: Relative activity against DNA topoisomerase I was measured at concentration of 83 uM to that of camptothecin; Active, 10 fold less than camptothecin
[4] = target: T1, DNA topoisomerase 1 (Homo sapiens); assay: Relative activity against DNA topoisomerase I was measured at concentration of 625 uM to that of camptothecin; Inactive
[5] = target: T1, DNA topoisomerase 1 (Homo sapiens); assay: Relative activity against Topoisomerase I was measured at concentration of 360 uM to that of camptothecin; Active, 35 fold less than camptothecin
[6] = target: T1, DNA topoisomerase 1 (Homo sapiens); assay: Relative activity against DNA topoisomerase I was measured at concentration of 12 uM to that of camptothecin
[7] = target: T1, DNA topoisomerase 1 (Homo sapiens); assay: Relative activity against DNA topoisomerase I was measured at concentration of 277 uM to that of camptothecin; inactive
[8] = target: T1, DNA topoisomerase 1 (Homo sapiens); assay: Relative activity against DNA topoisomerase I was measured at concentration of 554 uM to that of camptothecin; Active, 50 fold less than camptothecin
[9] = target: T1, DNA topoisomerase 1 (Homo sapiens); assay: Relative activity against DNA topoisomerase I was measured at concentration of 166 uM to that of camptothecin; Inactive
[10] = target: T1, DNA topoisomerase 1 (Homo sapiens); assay: Relative activity against DNA topoisomerase I was measured at concentration of 200 uM to that of camptothecin; Inactive

Relative activity [1]: inactive
SMILES: CCC1C(=O)OCc2c1c(C(=O)OC)c1n(c2=O)CC2Cc3ccccc3CC12 (configuration not stated)

Relative activity [4]: inactive
SMILES: CCC(C(=O)OC)c1cc(=O)n2c(c1C(=O)OC)-c1nc3ccccc3cc1C2 (configuration not stated)

Relative activity [5]: Active | Relative activity [6]: inactive
SMILES: CCC1C(=O)OCc2c1c(C(=O)OC)c1n(c2=O)Cc2ccccc2-1 (configuration not stated)

Relative activity [1]: inactive
SMILES: COC(=O)Cc1cc(=O)n2c(c1C(=O)OC)C1Cc3ccccc3CC1C2 (configuration not stated)

Relative activity [10]: inactive
SMILES: CCC(C(=O)OC)c1cc2n(c(=O)c1)Cc1cc3ccccc3nc1-2 (configuration not stated)

Continued, compound first:

SMILES: CCC1C(=O)OCc2c1cc1n(c2=O)Cc2ccccc2-1 (configuration not stated)
Relative activity [2]: inactive | Relative activity [3]: Active

SMILES: COC(=O)Cc1cc2n(c(=O)c1)Cc1cc3ccccc3nc1-2
Relative activity [7]: inactive | Relative activity [8]: Active

SMILES: CCC(C(=O)OC)c1cc(=O)n2c(c1C(=O)OC)C1Cc3ccccc3CC1C2 (configuration not stated)
Relative activity [1]: inactive

SMILES: COC(=O)Cc1cc(=O)n2c(c1C(=O)OC)-c1nc3ccccc3cc1C2
Relative activity [9]: inactive
